Entries after “also recorded” stand apart in the source; their conditions may differ.
Tests used:
[1] = test system: tick kinin receptor (recombinant R. microplus receptor, CHO-K1 BMLK3 cells); experiment: Cellular end-point fluorescence calcium mobilization assay, BMLK3 cells; type: cell-based, Rhipicephalus microplus
From the text: Three peptides were used in this study. These included: 1) the ligand for the endogenous tick kinin receptor from Rhipicephalus sanguineus, Rhisa-kinin 8 peptide of sequence GTGEDQAFSPWGamide (Rhisa-K-8; RK8; of identical sequence to Rhimi-K-8 in Rhipicephalus microplus)[48], 2) the same peptide but fluorescently labeled at the N-terminus with tetramethylrhodamine (TMR) a red fluorescent dye, designated TMR-Rhisa-K-8 (TMR-RK8), and 3) a labeled peptide synthesized with the scrambled sequence of the kinin ligand, designated TMR-Scrambled. The sequence of TMR-RK8 was TMR-C-GTGEDQAFSPWGamide). The TMR-Scrambled kinin (TMR-C-GTQWGPGFEADSamide) served as a negative control for tissue labeling. All peptides were custom-synthesized and purchased from GenScript (Piscataway, NJ, USA) with a purity of ≥ 95% and the cysteine in bold in both sequences was added to attach the label. Experiments were replicated with independently synthesized batches (4 mg each) of labeled and unlabeled peptides, for reproducibility. Unlabeled RK8 was used as a competitive ligand to verify target-specific binding of the labeled TMR-RK8 (see Ligand Competition Assay). For cell assays, the peptide stock solutions (100 µM) were made in 1% dimethyl sulfoxide (DMSO) in Hank’s balanced salt solution (HBSS, Thermo Fisher, Waltham, USA). For fluorescent cell labeling, peptide working solutions (10 µM) were prepared in HBSS from stock solutions. For assays on the midgut, peptides were solubilized and diluted in a tick physiological saline consisting of 140 mM NaCl, 5 mM KCl, 1 mM MgCl2, 5 mM CaCl2, 4 mM NaHCO3, and 5 mM HEPES, pH 7.2[49].
The tick kinin receptor is stably expressed in the recombinant CHO-K1 cell line designated BMLK3 (Boophilus microplus leucokinin receptor 3) that was constructed and selected as described by Holmes, et al.[47]. The CHO-K1 cells had been obtained from the American Type Culture Collection (ATCC) for transfection with the expression construct. This cell line has been kept in the laboratory since 2003. Cells that were transfected only with an empty plasmid are referred to as “vector-only” (V/O) cells and were used as a negative control. Before all experiments, the BMLK3 cell line or V/O cells were separately cultured in T-75 flasks with selective medium (F-12 K medium containing 10% FBS and 800 μgmL^−1 of G418 sulfate) for one to two passages in a humidified incubator at 37 °C and 5% CO2.
A fluorescence-based intracellular calcium mobilization end-point assay described by Xiong, et al.[50] was used to confirm the activity of the TMR-labeled RK8 peptide on a cell line expressing the tick kinin receptor. For this, BMLK3 and V/O cells were cultured in F-12 K medium (1% FBS and 400 μgmL^−1- of G418 Sulfate). The cells were seeded in a 96-well plate with 20,000 cells per well and incubated overnight at 37 °C and 5% CO2. The next morning, cells were prepared for the assay following the manufacturer’s instructions for the Fluo-8 Calcium Flux Assay Kit – NoWash (Abcam, Cambridge, United Kingdom). The F-12 K medium in the plate was removed by inverting the plate and gently blotting on paper towels. […] The calcium fluorescence signal was detected by a CLARIOstar (BMG LABTECH, Chicago, IL, United States) plate reader set to read at the fluorescence plate-mode with excitation and emission wavelengths of 490 and 525 nm at 29 °C. Calcium responses were read immediately after the addition of 10 µL of either TMR-RK8, unlabeled RK8, or blank solvent (1% DMSO in HBSS). […]

[2] = test system: tick kinin receptor (CHO-K1 BMLK3 cells); experiment: Fluorescence microscopy validation of labeled peptide specificity on live BMLK3 cells; type: binding, Rhipicephalus microplus
Procedure: BMLK3 and vector-only cells were cultured in selective media (F-12K medium containing 10% fetal bovine serum and 800 µg/mL-1 of G418 sulfate), cells were seeded in […] (CELLSTAR®, Greiner Bio-One®, Monroe, NC USA) at 20,000 cells per well and were incubated overnight. The next assay, the cell culture medium was removed, and cells were rinsed twice with 200 µl DPBS, and 180 µl of HBSS buffer was added into each well. The peptide stock solutions were prepared in 1% DMSO in HBSS at 100 µM. TMR-RK8 (20 µl) was added into each well and incubated with the cells for 5 min at room temperature. The medium was then removed with a pipette and the cells were rinsed twice with 200 µl HBSS, and DAPI (VECTASHIELD® H-1200, Vector Laboratories) was added (20 µl of 0.15 µg/ml) for visualizing the cell nuclei. Cells were rinsed twice with 200 µl of HBSS, and finally 180 µl HBSS per well was added.
The cells were immediately imaged under a Zeiss Axio Observer® inverted fluorescence microscope. The exposure time for the Bodipy-Tetramethylrhodamine-X (BPTmX) fluorescence channel was the same for BMLK3 cells and V/O cells. DAPI imaging was done subsequently using the same focal height as the BPTmx channel.

Question: What does the source list for TMR-C-GTGEDQAFSPWGamide [TMR-RK8]?
Answer: intracellular calcium fluorescence response / receptor activation (in words) ([1]; 10 nM to 10 μM (four concentrations), 1% DMSO in HBSS, Fluo-8, Ex 490/Em 525 nm, 29 °C, read 60 s at 1 s intervals, average raw fluorescence units of 4 technical replicates, simple linear regression): activated and labeled the recombinant R. microplus receptor expressed in CHO-K1 cells; also recorded: elicited a dose-dependent intracellular calcium fluorescence response; also recorded: functionally activates the tick recombinant kinin receptor in BMLK3 cells; also recorded: activated the receptor in a dose response fashion, similarly to the unlabeled RK8 peptide; fluorescence units at highest concentration, TMR-RK8 compared with RK8 (in words) ([1]; highest concentration assayed 10 µM, Fluo-8, 4 technical replicates): maximal and similar for the highest concentration assayed of 10 µM; effect of TMR label on peptide bioactivity (in words) ([1]; overlap of confidence intervals of cell responses to TMR-RK8 and RK8): the TMR fluorescent label did not impair peptide bioactivity; labeling of BMLK3 cells, Fig. S1 (in words) ([2]; 1 µM TMR-RK8, 5 min at room temperature, HBSS, Zeiss Axio Observer, BPTmX channel): only observed in the BLMK3 cells; receptor visualization across multiple BMLK3 cells (in words) ([2]; Figs. S1 and S2, BMLK3 cells): consistently visualized with TMR-RK8 across multiple BMLK3 cells

— paper PMC11091117, “A fluorescently-tagged tick kinin neuropeptide triggers peristalsis and labels tick midgut muscles” (Scientific Reports, 2024)
